The values that follow come from patent US20250177366A1, “COMPOSITIONS AND METHODS FOR ALLEVIATING PAIN AND REDUCING ADVERSIVENESS OF STIMULI” (UNIVERSITY OF WASHINGTON, priority 2021, published 2025).

One experiment relates to larval zebrafish. The experiment can be described thus: Sensitized thermal aversion assay (28.5° vs 31.5° C. after AITC), small molecule screen. It counts as in vivo, Zebrafish (Danio rerio). To be noted: 10 min incubation then AITC 0.5 μM. The text has this:
The Novel Analgesic AS1 reverses the valence of normally aversive stimuli. In a previously published study, a novel high throughput temperature discrimination assay utilizing larval zebrafish that modeled acute and sensitized temperature aversion were developed (FIG. 1A) (Curtright et al., PLoS One. 2015; 10:1-18). […] Also shown is that multiple small molecule analgesics could reverse acute and/or sensitized thermal aversion while non-analgesics could not.
Using the sensitized thermal aversion assay, a small molecule library was screened in order to identify targets in pain transduction pathways and potential entry points for therapeutic intervention. The compounds were selected from Chembridge's CNS-Set (https://www.chembridge.com), which consists of small molecules selected for blood brain barrier penetration and oral bioavailability. Compounds were selected from across the library to maximize the diversity of molecules screened. Small molecules were initially pooled (8 per pool) to maximize screening efficiency. […]
Thermal preference assay. […] Locomotor behavior was recorded using a Canon high-definition video camcorder suspended at a fixed position above the choice testing plate. […]

Experiment [1] concerns T1, 5-HT2a serotonin receptor (Homo sapiens).
T1 construct: Psychoactive Drug Screening Program (PDSP)
Nature of the experiment: PDSP radioligand binding assay. Conditions: PDSP screen. As to the method:
(§1) To further seek out the molecular target(s) of AS1, the resources of the Psychoactive Drug Screening Program (PDSP) (Besnard et al., Nature. 2012; 492:215-220) were utilized. […] While not being limited to mechanism or theory, to verify whether these receptors were involved in mediating the effects of AS1, the thermal preference assay following incubation in drugs that specifically acted upon these receptors was employed. […] Nor did treatment with the 5-HT2 s antagonist LY266097 replicate or reverse the effects of AS1 (FIG. 6). Incubation in either the specific sigma-1 receptor agonist (PRE-084) or antagonist (BD1063) similarly yielded no effects (FIG. 6).

The target of another experiment is T2, sigma-1 receptor (Homo sapiens, UniProt Q99720).
T2 construct: Psychoactive Drug Screening Program (PDSP)
Nature of the experiment: PDSP radioligand binding assay. Conditions: PDSP screen. As for the experimental part: as §1

T2 sequence (Q99720 whole entry, species assumed): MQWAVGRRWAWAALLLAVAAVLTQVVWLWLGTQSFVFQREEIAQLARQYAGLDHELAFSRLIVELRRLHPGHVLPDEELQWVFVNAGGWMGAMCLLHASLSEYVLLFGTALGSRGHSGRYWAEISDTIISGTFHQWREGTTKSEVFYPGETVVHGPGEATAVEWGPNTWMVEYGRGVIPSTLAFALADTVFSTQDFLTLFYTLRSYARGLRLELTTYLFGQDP
T1 sequence (P41595 whole entry): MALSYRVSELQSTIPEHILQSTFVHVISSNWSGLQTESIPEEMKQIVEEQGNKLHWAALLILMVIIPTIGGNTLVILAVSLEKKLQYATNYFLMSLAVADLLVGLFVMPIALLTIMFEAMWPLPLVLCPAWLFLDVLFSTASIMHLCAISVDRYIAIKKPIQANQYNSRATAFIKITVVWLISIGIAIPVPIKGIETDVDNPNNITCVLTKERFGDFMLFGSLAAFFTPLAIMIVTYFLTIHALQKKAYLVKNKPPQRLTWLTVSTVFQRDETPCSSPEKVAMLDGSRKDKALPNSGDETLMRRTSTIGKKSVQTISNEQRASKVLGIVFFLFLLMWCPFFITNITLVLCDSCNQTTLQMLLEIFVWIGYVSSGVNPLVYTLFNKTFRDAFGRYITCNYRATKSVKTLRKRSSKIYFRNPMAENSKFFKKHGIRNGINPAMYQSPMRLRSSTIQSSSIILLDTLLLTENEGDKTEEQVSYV

For `CC(C)c1ccc(C(=O)Nc2ccncc2)cc1` [AS1, 4-propan-2-yl-N-pyridin-4-ylbenzamide], the “sensitized thermal aversion / place preference” value in the experiment on larval zebrafish is given as “induced place preference for the noxious zone”. For the same compound, the radioligand binding interaction result (in experiment [1]; at sigma-1 receptor) was “potentially weak interactions” throughout.
